Experimental data from patent publication EP0968998A1, “Cosmetic compositions, ceramide analogues with anti-elastase activity and process for their preparation” (ELF ATOCHEM S.A., priority 1998, dated 2000).

Target: T1, élastase de leucocytes humains (Homo sapiens, UniProt P08246)
T1 construct: purchased Elastin Products Co. SE 563; host or cells: human leukocytes, as the enzyme's name says
T1 sequence (P08246 30-267): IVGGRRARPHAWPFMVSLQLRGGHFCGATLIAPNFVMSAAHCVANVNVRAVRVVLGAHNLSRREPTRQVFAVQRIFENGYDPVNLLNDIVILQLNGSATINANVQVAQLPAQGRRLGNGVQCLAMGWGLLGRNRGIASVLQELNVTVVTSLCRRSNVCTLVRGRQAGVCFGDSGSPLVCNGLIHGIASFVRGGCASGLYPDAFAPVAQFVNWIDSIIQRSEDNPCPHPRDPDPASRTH
Test: Anti-elastase activity: release of p-nitroaniline from N-succinyl-(Ala)3-p-nitroanilide, spectrophotometry at 410 nm
Assay type: biochemical
Conditions: pH 8, 37°C, pH8, 5 min preincubation, substrate 250 µM, read-out: % I (%)
Description: Les exemples qui suivent permettent d'illustrer l'invention. Dans ces exemples, on utilise les méthodes d'analyse suivantes : - Spectrographie infrarouge (IR) Les spectres sont réalisés au moyen d'un appareil PERKIN ELMER 1760 IRTF, en dispersion dans KBr à 1 %. Les valeurs sont exprimées en nombre d'onde par centimètre. - Résonance magnétique nucléaire (RMN) Les spectres sont réalisés au moyen d'un appareil BRUCKER DRX 500, à 500 MHz (^1H) et 125 MHz (^13C) dans le DMSO-d6. La calibration de l'appareil est effectuée au moyen de DMSO. Les déplacements chimiques sont exprimés en ppm. L'aspect des signaux est noté : singulet (s), doublet (d), triplet (t), quadruplet (q), multiplet (m), quintuplet (*5) et couplage AB (AB). - Mesure de l'activité anti-élastase L'activité anti-élastase est mesurée selon la méthode qui consiste à faire réagir l'élastase de leucocytes humains (référence SE 563; Elastin Products Co.; Owensville, MO, USA) avec le N-succinyl-(Ala)3-p-nitroanilide (réf. S4760; Sigma) et mesurer la libération de p-nitroaniline. On utilise le N-succinyl-(Ala)3-p-nitroanilide en solution dans le tétrahydrofurane et une solution d'élastase à 100 mg/ml dans un mélange de glycérol et de tampon acétate de sodium (50/50; v/v), pH5. L'activité de l'enzyme est mesurée à 37°C dans 100 mM de tampon Tris-HCI, pH8 contenant 0,01 % de Triton X-100 (volume/volume) et 0,02 % d'azide de sodium (poids/volume). Le céramide à tester, solubilisé dans le tétrahydrofurane (concentration en THF = 0,5 % en volume) est préincubé en présence de l'enzyme (0,05 mg/ml) dans le tampon pendant 5 minutes à 37°C. On ajoute le N-succinyl-(Ala)3-p-nitroanilide (concentration finale : 250 µM) et on mesure la libération de la p-nitroaniline dans une cuve en quartz par spectrophotométrie à 410 nm. La capacité inhibitrice du céramide est exprimée en pourcentage d'inhibition (% I) selon la relation : %I = (1 -(Vi)/(Vo))×100 [formula] dans laquelle Vi et Vo sont les vitesses d'apparition de la p-nitroaniline en présence et en absence d'inhibiteur respectivement. - Mesure de l'amélioration de la barrière cutanée a) mesure de la Perte Insensible en Eau (PIE) La mesure de la PIE permet de quantifier la très faible quantité d'eau qui diffuse passivement à travers le stratum corneum. Ce paramètre représente un très bon index de la fonction barrière du stratum corneum. Cette méthode est surtout utilisée pour contrôler l'efficacité de formules cosmétiques qui, contenant certains types de lipides sont capables de diminuer la PIE et, en conséquence, d'empêcher la déshydratation du stratum corneum. La sonde est laissée en contact de la peau pendant 2 minutes environ de façon à atteindre une position d'équilibre. PIE = D'(dP)/(dx)(gradient de pression de vapeur) [formula] Les valeurs sont exprimées en g/m^2/heure et permettent de calculer un delta de PIE = PIE (peau traitée) - PIE (peau témoin). L'appareil utilisé est un Evaporimètre EPI de Servomed. Les mesures sont effectuées sur deux groupes de 15 volontaires sains ayant une peau sèche, avant l'application du produit (t=0) et après l'application (t=0,5 heure, 1 heure, 3 heures et 6 heures) sur la face interne des deux avant-bras. L'analogue de céramide selon l'invention ou le céramide témoin est incorporé dans une crème ayant la composition suivante (en % en poids) : […]

## CCCCCCCCCCCCCCCCCC(=O)NC(CC)(CO)COC(=O)CCCCCCCCCCCCCCCCC (centres unmarked) [Exemple 4, 1-stéaroyl-2-éthyl-2-stéaroylamino-1,3-propanediol]
Concentration 250 µM
  inhibition at 250 µM: 67%
Concentration 500 µM
  inhibition at 500 µM: 86%
